Measurements from ChEMBL document CHEMBL4256941, “Histone demethylase inhibitors” (2016).
pIC50: −log10 of the molar value.

How the values were obtained:
[1] = target: Lysine-specific demethylase 5B (Homo sapiens, UniProt Q9UGL1); experiment: Inhibition of recombinant human N-terminal His-FLAG tagged JARID1B (2 to 751 residues) expressed in baculovirus infected sf9 cells using H3K4me3-biotin peptide as substrate after 30 mins in presence of alpha-ketoglutaric acid by LANCE TR-FRET assay
[2] = target: T1, Lysine-specific demethylase 4C (Homo sapiens, UniProt Q9H3R0); experiment: Inhibition of recombinant human N-terminal GST-tagged JMJD2C (2 to 372 residues) expressed in baculovirus infected sf9 cells using H3K9me3-biotin peptide as substrate after 30 mins in presence of alpha-ketoglutaric acid by LANCE TR-FRET assay
T1 sequence (Q9H3R0 whole entry): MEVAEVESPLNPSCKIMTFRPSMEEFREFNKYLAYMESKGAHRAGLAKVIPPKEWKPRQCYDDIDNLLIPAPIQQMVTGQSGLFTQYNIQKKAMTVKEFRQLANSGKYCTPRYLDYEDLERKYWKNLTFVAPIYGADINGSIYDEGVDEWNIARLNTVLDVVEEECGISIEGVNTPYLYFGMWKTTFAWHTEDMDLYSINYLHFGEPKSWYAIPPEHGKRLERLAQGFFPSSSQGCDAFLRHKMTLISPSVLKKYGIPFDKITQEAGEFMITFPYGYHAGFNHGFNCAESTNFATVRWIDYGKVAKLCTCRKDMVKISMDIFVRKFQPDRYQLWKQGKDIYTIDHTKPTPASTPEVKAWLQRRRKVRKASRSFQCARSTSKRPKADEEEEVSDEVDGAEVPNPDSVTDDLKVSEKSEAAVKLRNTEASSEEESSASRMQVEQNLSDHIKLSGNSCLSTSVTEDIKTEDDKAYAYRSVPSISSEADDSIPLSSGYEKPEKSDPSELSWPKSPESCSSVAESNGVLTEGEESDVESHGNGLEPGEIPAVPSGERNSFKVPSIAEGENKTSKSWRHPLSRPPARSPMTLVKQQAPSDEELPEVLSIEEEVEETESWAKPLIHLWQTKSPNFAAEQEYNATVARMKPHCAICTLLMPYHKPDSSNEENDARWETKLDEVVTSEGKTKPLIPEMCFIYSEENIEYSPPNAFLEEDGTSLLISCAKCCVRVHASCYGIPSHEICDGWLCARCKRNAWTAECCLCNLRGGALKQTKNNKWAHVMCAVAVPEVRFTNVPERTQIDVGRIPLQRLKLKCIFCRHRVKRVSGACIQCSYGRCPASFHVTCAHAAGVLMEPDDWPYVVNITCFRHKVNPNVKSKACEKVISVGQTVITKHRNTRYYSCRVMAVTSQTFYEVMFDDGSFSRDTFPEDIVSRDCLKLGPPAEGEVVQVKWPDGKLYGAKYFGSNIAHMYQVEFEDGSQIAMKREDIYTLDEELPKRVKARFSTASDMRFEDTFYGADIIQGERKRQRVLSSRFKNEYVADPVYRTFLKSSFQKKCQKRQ

[3] = target: Lysine-specific demethylase 5A (Homo sapiens, UniProt P29375); experiment: Inhibition of recombinant human C-terminal FLAG-tagged JARID1A (1 to 1090 residues) expressed in baculovirus infected sf9 cells using H3K4me3-biotin peptide as substrate after 30 mins in presence of alpha-ketoglutaric acid by LANCE TR-FRET assay
Chain of Lysine-specific demethylase 5A (P29375 whole entry, the tested form may be a part): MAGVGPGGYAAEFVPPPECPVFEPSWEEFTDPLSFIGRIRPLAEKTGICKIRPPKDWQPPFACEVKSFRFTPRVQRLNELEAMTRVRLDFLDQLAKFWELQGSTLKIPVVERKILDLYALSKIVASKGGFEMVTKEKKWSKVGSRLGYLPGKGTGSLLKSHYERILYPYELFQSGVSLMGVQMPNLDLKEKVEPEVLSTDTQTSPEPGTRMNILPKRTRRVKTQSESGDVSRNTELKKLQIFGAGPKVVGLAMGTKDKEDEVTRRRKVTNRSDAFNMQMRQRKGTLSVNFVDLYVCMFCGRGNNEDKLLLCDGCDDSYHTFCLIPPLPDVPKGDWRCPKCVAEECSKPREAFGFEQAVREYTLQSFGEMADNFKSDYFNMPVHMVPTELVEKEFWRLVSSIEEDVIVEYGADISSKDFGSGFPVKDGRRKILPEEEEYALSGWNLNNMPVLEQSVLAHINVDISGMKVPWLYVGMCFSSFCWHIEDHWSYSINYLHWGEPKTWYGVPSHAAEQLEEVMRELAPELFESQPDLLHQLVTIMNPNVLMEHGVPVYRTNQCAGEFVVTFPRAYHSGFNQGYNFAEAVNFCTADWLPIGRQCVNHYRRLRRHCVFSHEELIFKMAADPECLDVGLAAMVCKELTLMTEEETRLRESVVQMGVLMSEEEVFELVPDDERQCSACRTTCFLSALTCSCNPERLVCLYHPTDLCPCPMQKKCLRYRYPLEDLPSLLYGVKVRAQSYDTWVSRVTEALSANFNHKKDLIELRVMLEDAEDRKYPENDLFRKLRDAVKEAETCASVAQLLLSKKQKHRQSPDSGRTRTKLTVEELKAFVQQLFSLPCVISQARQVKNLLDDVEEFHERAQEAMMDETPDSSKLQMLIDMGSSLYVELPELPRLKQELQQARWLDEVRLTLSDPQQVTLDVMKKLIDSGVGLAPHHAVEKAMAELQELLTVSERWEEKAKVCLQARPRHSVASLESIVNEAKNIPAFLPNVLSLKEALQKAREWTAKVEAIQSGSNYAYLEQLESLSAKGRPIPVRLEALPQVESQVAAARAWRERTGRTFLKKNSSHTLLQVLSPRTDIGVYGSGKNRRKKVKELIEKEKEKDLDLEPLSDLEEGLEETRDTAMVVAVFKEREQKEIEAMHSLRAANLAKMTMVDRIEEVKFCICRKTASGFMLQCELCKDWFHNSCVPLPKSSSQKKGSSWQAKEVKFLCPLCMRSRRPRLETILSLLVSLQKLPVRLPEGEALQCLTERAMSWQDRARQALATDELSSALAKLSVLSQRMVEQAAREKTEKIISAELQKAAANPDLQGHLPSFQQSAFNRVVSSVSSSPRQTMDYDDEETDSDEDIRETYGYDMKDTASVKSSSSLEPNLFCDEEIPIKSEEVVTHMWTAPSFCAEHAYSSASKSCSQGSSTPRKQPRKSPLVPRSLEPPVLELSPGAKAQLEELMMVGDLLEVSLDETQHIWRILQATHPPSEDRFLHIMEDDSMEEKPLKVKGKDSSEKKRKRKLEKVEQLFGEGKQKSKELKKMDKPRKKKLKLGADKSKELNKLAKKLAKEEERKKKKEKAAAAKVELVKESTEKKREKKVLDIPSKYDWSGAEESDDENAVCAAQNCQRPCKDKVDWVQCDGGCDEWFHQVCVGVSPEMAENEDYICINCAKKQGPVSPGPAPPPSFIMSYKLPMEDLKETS

Chain of Lysine-specific demethylase 5B (Q9UGL1 whole entry, the tested form may be a part): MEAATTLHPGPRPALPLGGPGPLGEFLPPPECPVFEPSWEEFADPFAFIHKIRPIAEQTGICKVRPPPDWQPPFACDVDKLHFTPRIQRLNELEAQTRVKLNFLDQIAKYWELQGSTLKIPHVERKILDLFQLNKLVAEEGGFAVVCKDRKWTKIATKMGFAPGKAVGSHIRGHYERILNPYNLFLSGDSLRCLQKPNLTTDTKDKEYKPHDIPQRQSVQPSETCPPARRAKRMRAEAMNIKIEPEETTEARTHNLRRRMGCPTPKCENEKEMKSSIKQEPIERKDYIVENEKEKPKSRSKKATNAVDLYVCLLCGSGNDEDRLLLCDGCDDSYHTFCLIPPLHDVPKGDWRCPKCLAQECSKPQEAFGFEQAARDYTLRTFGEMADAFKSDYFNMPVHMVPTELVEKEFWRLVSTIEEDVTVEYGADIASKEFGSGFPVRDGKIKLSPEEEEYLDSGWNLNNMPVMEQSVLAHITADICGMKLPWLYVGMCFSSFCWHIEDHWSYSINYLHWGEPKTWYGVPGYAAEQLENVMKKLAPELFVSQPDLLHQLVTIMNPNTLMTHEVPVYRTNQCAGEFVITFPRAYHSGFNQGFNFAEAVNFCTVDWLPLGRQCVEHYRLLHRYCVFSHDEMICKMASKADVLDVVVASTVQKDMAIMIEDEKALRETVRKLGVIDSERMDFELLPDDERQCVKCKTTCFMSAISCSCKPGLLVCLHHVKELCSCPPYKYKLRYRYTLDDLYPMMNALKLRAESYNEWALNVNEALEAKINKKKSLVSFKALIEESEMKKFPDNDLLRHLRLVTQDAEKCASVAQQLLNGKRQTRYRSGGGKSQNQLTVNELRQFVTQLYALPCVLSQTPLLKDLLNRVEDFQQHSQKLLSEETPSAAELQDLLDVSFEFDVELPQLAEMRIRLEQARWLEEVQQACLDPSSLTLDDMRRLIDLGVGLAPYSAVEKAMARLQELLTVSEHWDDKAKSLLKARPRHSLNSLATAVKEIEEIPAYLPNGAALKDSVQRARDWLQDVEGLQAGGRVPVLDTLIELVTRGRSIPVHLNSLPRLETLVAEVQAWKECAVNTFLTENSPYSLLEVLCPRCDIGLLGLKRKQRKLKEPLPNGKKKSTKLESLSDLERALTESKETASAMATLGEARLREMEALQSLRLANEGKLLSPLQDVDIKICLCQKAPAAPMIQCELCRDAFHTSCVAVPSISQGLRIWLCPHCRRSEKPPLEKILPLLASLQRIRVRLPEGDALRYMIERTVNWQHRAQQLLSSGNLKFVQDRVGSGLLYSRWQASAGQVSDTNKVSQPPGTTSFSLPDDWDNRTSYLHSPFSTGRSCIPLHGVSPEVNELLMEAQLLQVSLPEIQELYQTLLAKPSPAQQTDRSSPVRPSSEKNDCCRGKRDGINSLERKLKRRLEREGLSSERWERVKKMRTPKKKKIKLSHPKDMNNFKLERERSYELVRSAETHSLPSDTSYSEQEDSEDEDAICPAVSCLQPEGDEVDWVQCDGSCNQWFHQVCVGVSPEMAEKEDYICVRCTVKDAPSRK

pIC50 [1]: ≥ 7.00
pIC50 [2]: 6.00 to 7.00
pIC50 [3]: ≥ 7.00
Structure (SMILES): O=C(O)c1ccnc(-n2nccc2OCc2ccc(F)c(OCc3ccc(F)cc3)c2)c1
